This note sets out measurements from ChEMBL document CHEMBL1201862, “PubChem BioAssay data set” (2004).

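Where inhibition never reached the appropriate level, the endpoint shown equals the highest concentration tested. Otherwise, values were interpolated linearly from a five-concentration, 48-hour dose response in 96-well plates. The concentration for 50% growth inhibition is given as GI50.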 The source made the active and inactive calls. No stated cut-off is given here; in the data, active = GI50 up to about 1.1 µM and inactive = higher. A value given as a limit tells only on which side of the number the result lay.

Some test systems named below: A549; COLO 205; EKVX; HCT-15; Hs-578T; IGROV-1; K562; KM12; NCI-H226; NCI-H460; NCI/ADR-RES; OVCAR-4; PC-3; RPMI-8226; RXF 393; SF-295; SF-539; UACC-62.
What all share (assay): growth of human tumour cells (NCI), 48 h

Regarding `CC(=O)Nc1ccc(S(=O)(=O)N=S(C)C)cc1`, the GI50 is > 100 µM (inactive) with A549; > 100 µM (inactive) with COLO 205; > 100 µM (inactive) in the test on EKVX; greater than 100 µM with HCT-15; > 100 µM (inactive) in the test on Hs-578T; > 100 µM (inactive) with IGROV-1. For the same compound, the GI50 in the test with K562, in the test on KM12, in the test with NCI-H226, in the test on NCI-H460, in the test on NCI/ADR-RES and with OVCAR-4 was > 100 µM (inactive) in each case. For the same compound, the GI50 with PC-3, with RPMI-8226, in the test on RXF 393, with SF-295, in the test with SF-539 and with UACC-62 was > 100 µM (inactive) in each case.

For the compound `O=C(c1ccccc1)c1c(-c2ccccc2)[nH]n(-c2ccc([N+](=O)[O-])cc2)c(=O)c1=O`, the GI50 in the test on A549 was 38.5 µM (inactive); in the test on COLO 205, > 100 µM (inactive); with EKVX, 91 µM (inactive); with HCT-15 it was 39.5 µM; with Hs-578T it was 0.504 µM (active); with IGROV-1, > 100 µM (inactive). Further, the GI50 in the test with K562 is 41.5 µM (inactive); in the test on KM12, 94.8 µM (inactive); in the test on NCI-H226, 39.7 µM (inactive); with NCI-H460 it was 37.2 µM (inactive); in the test on NCI/ADR-RES, 49.5 µM (inactive); in the test on OVCAR-4, 25.8 µM (inactive). For the same compound, the GI50 in the test on PC-3 is 42.9 µM (inactive); with RPMI-8226, 43.9 µM (inactive); in the test on RXF 393 it was > 100 µM (inactive); with SF-295, 46.8 µM (inactive); in the test with SF-539, 28.8 µM (inactive); in the test on UACC-62, < 0.01 µM (active).

Turning to `CC1=NN(C(=O)CC(=O)Nc2cccc(C)c2)C(=O)C1/N=N/c1ccc(S(=O)(=O)CCOS(=O)(=O)O)cc1` (stereo not drawn), the GI50 with A549 was 4.48 µM (inactive); with COLO 205, 2.45 µM (inactive); in the test on EKVX it was 32.2 µM (inactive); in the test on HCT-15, 0.319 µM; in the test on Hs-578T, 4.18 µM (inactive); in the test on IGROV-1, 0.63 µM (active). Further, the GI50 with K562 was 0.388 µM (active); in the test on KM12, 2.51 µM (inactive); in the test on NCI-H226, 0.718 µM (active); with NCI-H460, 3.24 µM (inactive); in the test with NCI/ADR-RES it was 0.344 µM (active); in the test on OVCAR-4, 9.42 µM (inactive). For the same compound, the GI50 was 0.359 µM (active) in the test on PC-3; 1.86 µM (inactive) with RPMI-8226; 1.62 µM (inactive) with RXF 393; 2.82 µM (inactive) in the test with SF-295; 2 µM (inactive) with SF-539; 1.81 µM (inactive) in the test with UACC-62.

Regarding `O=C(CCCl)NN=C1NCCCN1`, the GI50 with A549 was > 100 µM (inactive); in the test on COLO 205 it was > 100 µM (inactive); with EKVX it was > 100 µM (inactive); in the test with HCT-15, greater than 100 µM; in the test on Hs-578T, > 100 µM (inactive); with IGROV-1, > 100 µM (inactive). In addition, the GI50 in the test with K562, with KM12, with NCI-H226, in the test with NCI-H460, in the test with NCI/ADR-RES and in the test with OVCAR-4 was > 100 µM (inactive) in each case. For the same compound, the GI50 in the test on PC-3, in the test with RPMI-8226, in the test with RXF 393, in the test on SF-295, in the test on SF-539 and in the test on UACC-62 was > 100 µM (inactive) each time.

As to `COC(=O)CCc1cc(O)c2c(c1)C(C(=O)OC)C(c1ccc(O)c(O)c1)O2` (stereo not drawn), the GI50 with A549 is 43.4 µM (inactive); in the test with COLO 205, 31.4 µM (inactive); in the test on EKVX, 34.4 µM (inactive); in the test on HCT-15, 4.36 µM; in the test with Hs-578T, 25.2 µM (inactive); in the test with IGROV-1, 12.1 µM (inactive). Also, the GI50 in the test with K562 is 2.61 µM (inactive); in the test on KM12, 3.88 µM (inactive); in the test on NCI-H226 it was 26.4 µM (inactive); in the test with NCI-H460 it was 22.9 µM (inactive); in the test with NCI/ADR-RES it was 42.3 µM (inactive); with OVCAR-4 it was > 58.7 µM (inactive). The GI50 was 19.6 µM (inactive) in the test on PC-3; 22 µM (inactive) with RPMI-8226; 18.7 µM (inactive) with RXF 393; 17.7 µM (inactive) with SF-295; 9.64 µM (inactive) in the test with SF-539; 8.15 µM (inactive) with UACC-62.

Regarding `O=C(O)[C@@H]1[C@H](C(=O)O)[C@H](C(=O)O)C[C@@H]1C(=O)O`, the GI50 with A549 was > 100 µM (inactive); in the test on COLO 205 it was > 100 µM (inactive); in the test on EKVX, > 100 µM (inactive); with HCT-15, greater than 100 µM; in the test on Hs-578T, > 100 µM (inactive); in the test on IGROV-1 it was > 100 µM (inactive). Besides, the GI50 with K562, in the test on KM12, in the test with NCI-H226, in the test on NCI-H460, with NCI/ADR-RES and in the test on OVCAR-4 was > 100 µM (inactive) in each case. Also, the GI50 in the test on PC-3, with RPMI-8226, with RXF 393, with SF-295, with SF-539 and with UACC-62 was > 100 µM (inactive) throughout.

Turning to `COc1ccc(C2c3cc4c(cc3OC(N3CCOCC3)C2C)OCO4)cc1OC` (stereo not drawn), the GI50 was 7.82 µM (inactive) in the test with A549; 4.76 µM (inactive) in the test on COLO 205; 24.4 µM (inactive) with EKVX; 4.76 µM with HCT-15; 3.51 µM (inactive) with Hs-578T; 7.64 µM (inactive) in the test on IGROV-1. Further, the GI50 with K562 was 4.31 µM (inactive); in the test on KM12 it was 4.46 µM (inactive); with NCI-H226, 6.9 µM (inactive); in the test with NCI-H460 it was 6.3 µM (inactive); in the test with NCI/ADR-RES, 3.61 µM (inactive); with OVCAR-4, 15.8 µM (inactive). Besides, the GI50 in the test with PC-3 was 6.43 µM (inactive); in the test on RPMI-8226, 6.18 µM (inactive); with RXF 393 it was 5.89 µM (inactive); in the test on SF-295 it was 4.39 µM (inactive); with SF-539, 3.89 µM (inactive); in the test on UACC-62 it was 5.48 µM (inactive).

Consider `C=C(Br)CN(CC(=C)Br)C(C)=O`, for which the GI50 was > 100 µM (inactive) in the test with A549; > 100 µM (inactive) in the test on COLO 205; > 100 µM (inactive) in the test with EKVX; greater than 100 µM in the test on HCT-15; > 100 µM (inactive) in the test with Hs-578T; > 100 µM (inactive) in the test with IGROV-1. Further, the GI50 in the test on K562, in the test with KM12, in the test with NCI-H226, with NCI-H460, in the test with NCI/ADR-RES and in the test on OVCAR-4 was > 100 µM (inactive) in each case. The GI50 in the test on PC-3 is 81.8 µM (inactive); in the test with RPMI-8226, > 100 µM (inactive); in the test with RXF 393 it was > 100 µM (inactive); in the test on SF-295, > 100 µM (inactive); in the test with SF-539, > 100 µM (inactive); in the test with UACC-62 it was > 100 µM (inactive).

Turning to `Cc1ccc2c(c1C)C(=O)/C(=C/c1ccccc1C(=O)O)C2`, the GI50 with A549 is > 100 µM (inactive); with COLO 205, > 100 µM (inactive); in the test on EKVX it was > 100 µM (inactive); with HCT-15, greater than 100 µM; in the test with Hs-578T it was > 100 µM (inactive); with IGROV-1, > 100 µM (inactive). The GI50 in the test on K562, in the test with KM12, with NCI-H226, in the test on NCI-H460, in the test with NCI/ADR-RES and in the test on OVCAR-4 was > 100 µM (inactive) in each case. In addition, the GI50 is > 100 µM (inactive) with PC-3; 45.3 µM (inactive) with RPMI-8226; > 100 µM (inactive) in the test with RXF 393; > 100 µM (inactive) with SF-295; > 100 µM (inactive) with SF-539; > 100 µM (inactive) in the test on UACC-62.

Turning to `CN(C)c1ccc(C2SCC(=O)N2c2nc3cc4sc(N5C(=O)CSC5c5ccc(N(C)C)cc5)nc4cc3s2)cc1` (stereo not drawn), the GI50 with A549 was 7.71 µM (inactive); with COLO 205, 3.73 µM (inactive); in the test on EKVX, 54.1 µM (inactive); in the test with HCT-15 it was 8.87 µM; in the test on Hs-578T, 47.2 µM (inactive); in the test with IGROV-1, 29.3 µM (inactive). In addition, the GI50 is 40.9 µM (inactive) in the test with K562; 39.5 µM (inactive) with KM12; 7.62 µM (inactive) with NCI-H226; 1.53 µM (inactive) in the test with NCI-H460; > 23.3 µM (inactive) with NCI/ADR-RES; 32.9 µM (inactive) in the test on OVCAR-4. Moreover, the GI50 in the test on PC-3 was 38.1 µM (inactive); in the test with RPMI-8226, 19.5 µM (inactive); with RXF 393, > 100 µM (inactive); with SF-295, 46.6 µM (inactive); in the test on SF-539, 51.5 µM (inactive); with UACC-62, > 72.3 µM (inactive).

With `O=C(O)c1cccc(C(=O)O)c1[S+]([O-])Cc1ccccc1` (stereo not drawn), the GI50 in the test on A549 was > 100 µM (inactive); in the test with COLO 205, > 100 µM (inactive); in the test on EKVX it was > 100 µM (inactive); in the test on HCT-15, greater than 100 µM; in the test on Hs-578T, > 100 µM (inactive); in the test with IGROV-1, > 100 µM (inactive). In addition, the GI50 with K562, in the test with KM12, in the test with NCI-H226, in the test on NCI-H460, in the test on NCI/ADR-RES and in the test on OVCAR-4 was > 100 µM (inactive) throughout. Also, the GI50 in the test on PC-3, in the test with RPMI-8226, in the test on RXF 393, in the test with SF-295, with SF-539 and in the test with UACC-62 was > 100 µM (inactive) each time.
